Test results taken from US20240074986A1, “Methods of Enhancing Non-Viral Gene Therapy” (Spark Therapeutics, Inc., priority 2020, published 2024).

Key:
INF-γ and/or IL-6 = test: Plasma pro-inflammatory cytokines by MSD 6 hours post-dose (Example 2); format: in vivo, mice (Balb/c); conditions: 6-hour post-dose plasma; SPK-LNP1 50 μg; FIGS. 3A and 3B
Protocol: The effects of immune cell depletion on cytokine release and on transgene expression were studied using an anti-CD115 antibody in combination with clodronate, which is a toxic agent encapsulated in liposomes to induce monocyte/macrophage apoptosis.
FIX transgene DNA plasmid (50 μg), formulated in lipid nanoparticle (LNP) delivery vehicles (SPK-LNP1), was dosed in mice (n=5; Balb/c; Jackson Laboratory) by intravenous administration alone, or in combination with anti-CD115 antibody and/or clodronate (purchased from Liposoma), as outlined in Table 3. SPK-LNP-1 had the following composition: C12-200 lipid at 35%; DOPE at 16%; cholesterol at 46.5%; and C14-PEG2000 (Avanti® Polar Lipids) at 2.5%. DNA and anti-CD115 antibody were as described in Example 1.
6-hour post-dose plasma samples were analyzed for a panel of pro-inflammatory cytokines using MSD: IL-6, IFN-γ, TNF-α and IL-1β.

CD68+ macrophages = test: Liver histology, anti-CD68 staining, depletion efficacy (Example 3); format: in vivo, Balb/C mice; conditions: for CD68+ macrophage depletion: clodronate IV 50 or 17 mpk, anti-CD115 IP 12 mpk 1 or 4 doses, pexidartinib oral gavage 100 mpk 4 doses, FIG. 5B
Protocol: (§1) Balb/C mice were treated with the immune cell depletion agents clodronate, anti-CD115 antibody (as described in Example 1), or pexidartinib. Clodronate was provided by IV administration at 50 mpk (1.25 mg) or 17 mpk (425 μg), anti-CD115 antibody was provided by IP administration at 12 mpk (300 μg) 1 dose vs 4 doses. Anti-CD115 antibody was as described in Example 1. Pexidartinib was provided by oral gavage administration at 100 mpk (2.5 mg) 4 doses. A no-treatment mice group was used as a control. Each group contained 5 male BALB/c mice.
(§2) After the treatment, mice were euthanized and the liver samples were harvested for histology. Liver samples were stained with either anti-CLEC4F or anti-CD68 mouse antibody. Individual scores of the treatment groups were normalized by the no-treatment group to calculate depletion efficacy.
(§3) Pexidartinib was mixed with mice chow at 400 mg Pex/kg chow. Liver histology was taken after mice were fed with Pex-chow for 7 or 21 days.

CLEC4F+ Kupffer cells = test: Liver histology, anti-CLEC4F staining, depletion efficacy (Example 3); format: in vivo, Balb/C mice; conditions: for Kupffer cell depletion (CLEC4F+ staining): clodronate IV 50 or 17 mpk, anti-CD115 IP 12 mpk 1 or 4 doses, pexidartinib oral gavage 100 mpk 4 doses, FIG. 5A
Protocol: as §1, §2, §3

hFIX = hFIX levels in mouse plasma by ELISA after pexidartinib chow and DNA-LNP-5 (Example 4); format: in vivo; conditions: DNA-LNP-5 10 μg per mouse; 1-4 weeks after dosing; Pex chow 7 or 21 days before dosing or regular chow; FIG. 7
Protocol: Pexidartinib was mixed with mice chow at 400 mg Pex/kg chow. In group 2 and group 3, mice chow was replaced with Pex chow at 21 days and 7 days before DNA-LNP-5 dosing.
Mice in group 1 were fed with regular chow throughout the study and served as controls. Mice were dosed with DNA-LNP-5 (10 μg per mouse). LNP-5 (GenVoy™ LNP) was obtained from Precision NanoSystems Inc.) and contained: ionizable lipid at 50%; DSPC at 10%; cholesterol 37.5%; and stabilizer (PEG-Lipid) at 2.5% (see Roces et al., Pharmaceutics, 2020 12, 1095.) DNA was as described in Example 1. hFIX levels in mouse plasma were quantified using ELISA 1-4 weeks after dosing.

Structure (SMILES)	cytokine (INF-γ and/or IL-6) levels following DNA-LNP administration (INF-γ and/or IL-6)	CD68+ macrophage depletion (CD68+ macrophages)	Kupffer cell depletion (CLEC4F+ staining) (CLEC4F+ Kupffer cells)	depletion of CD68+ macrophages (CD68+ macrophages; mixed with mice chow at 400 mg Pex/kg chow, fed 7 or 21 days, FIG. 6A)	hFIX levels in mouse plasma (hFIX)	depletion of CLEC4F+ Kupffer cells (CLEC4F+ Kupffer cells; mixed with mice chow at 400 mg Pex/kg chow, fed 7 or 21 days, FIG. 6B)
O=P(O)(O)C(Cl)(Cl)P(=O)(O)O [clodronate]	moderately reduced	significant effect	significant effect	–	–	–
FC(F)(F)c1ccc(CNc2ccc(Cc3c[nH]c4ncc(Cl)cc34)cn2)cn1 [Pexidartinib, pexidartinib]	–	no impact	small impact	significant depletion	a few mice in Pex-treated groups showed detectable expression	significant depletion
